According to PMC10694853, “Bio-guided isolation of alpha-glucosidase inhibitory compounds from Vietnamese Garcinia schomburgkiana fruits: in vitro and in silico studies” (RSC Advances, 2023):
Entries after “also recorded” stand apart in the source; their conditions may differ. Like-named read-outs stand apart in the source and are kept apart here.

Key:
yeast alpha-glucosidase = assay: Alpha-glucosidase inhibition assay; format: biochemical; settings: isolated compounds
Experimental: Extracts and fractions EA1–EA16 were evaluated for the alpha-glucosidase inhibition to choose the fraction for further analysis. The isolation of 1–11 was described in Scheme 1 using silica gel CC with various solvent systems.
Evaluation of the inhibitory activity of 1–11 against yeast alpha-glucosidase followed a previous procedure.[34]

alpha-glucosidase [1] = settings: cited from earlier work; for IC50: read-out: Alpha-glucosidase inhibition IC50
alpha-glucosidase [2] = assay: Kinetic study of alpha-glucosidase inhibition (Lineweaver–Burk plots); format: biochemical
Experimental: To better understand the kinetic parameters of alpha-glucosidase inhibition by 2, the enzyme activity was assessed by varying substrate concentrations in the absence or presence of 2. The inhibition type was identified through Lineweaver–Burk plots (Fig. 3A), where the reciprocal of the reaction rate (1/V) was graphed against the reciprocal of substrate concentrations (1/[S]). This approach allowed monitoring the effect of the inhibitor on both Km and Vmax. […] The inhibition constant for the inhibitor binding with free enzyme (Ki) was determined from a plot of the slope (Km/Vm) versus the inhibitor concentration (Fig. 3B).
The kinetics of 2 against alpha-glucosidase was conducted by varying the concentration of p-NPG substrate in the absence or presence of tested compound at different concentrations (0, 30.0, and 60.0 μM). The Lineweaver–Burk plots were used to determine the inhibition type. In addition, the inhibition constant Ki is an indication of the potency of an inhibitor and was determined from secondary plots of 1/V vs. [I].[35] The Lineweaver–Burk double-reciprocal plot (1/V vs. 1/[S]) was employed to discern the Vmax, […], and mode of inhibition (Fig. 10). [drawing 1]

[3] = target: protein tyrosine phosphatase 1B; set-up: method as in PMID 34111550; settings: isolated from H. forrestii; read-out: PTP1B inhibition IC50; cited from earlier work

Row | IC50 (yeast alpha-glucosidase) | Compound | also measured
1 | 116 ± 2.7 µM | C=C(C)C1CC23C(=O)C4(CC=C(C)CCC=C(C)C)CC(CC2C1(C)C)C(C)(C)C(C(=O)c1ccccc1)(C4=O)C3=O (stereo not shown) [Compound 5, sampsonione D] | –
2 | 16.2 ± 0.7 µM | guttiferone K [Compound 3] | –
3 | – | C[C@H]1O[C@H](O[C@H]2[C@H](O)[C@@H](O)[C@@H](O[C@H]3[C@H](O)[C@@H](O)C(O)O[C@@H]3CO)O[C@@H]2CO)[C@H](O)[C@@H](O)[C@@H]1N[C@H]1C=C(CO)[C@@H](O)[C@H](O)[C@H]1O (stereo partly shown) [acarbose] | Inhibition type (alpha-glucosidase [1]; positive control, previous work): competitive inhibitor
4 | > 200 µM | COc1c(O)cc2oc3cc(O)c4c(c3c(=O)c2c1CC=C(C)C)OC(C)(C)C(O)C4 (stereo not shown) [Compound 11, 11-hydroxy-1-isomangostin] | –
5 | 29.4 ± 1.2 µM | CC(C)=CCC/C(C)=C/C[C@H]1C[C@]2(CC=C(C)C)C(=O)[C@@](CC=C(C)C)(C(=O)C(C(=O)c3ccc(O)c(O)c3)=C2O)[C@]1(C)CCC=C(C)C [Compound 2, guttiferone I] | Inhibition type (alpha-glucosidase [2]; Lineweaver–Burk plots, Vmax constant, Km increased): competitive inhibitor; also recorded: competitive type; Ki (alpha-glucosidase [2]; from plot of slope (Km/Vm) versus inhibitor concentration, p-NPG substrate, read-out: Inhibition constant Ki): 69.2 µM; IC50 (alpha-glucosidase [1]; compound from G. cowa): 13.1 µM
6 | > 200 µM | COc1cc2oc3cc(O)c(OC)c(CC=C(C)C)c3c(=O)c2c(O)c1CC=C(C)C [Compound 7, β-mangostin] | –
7 | – | CC(C)=CCCC1(C)C(CC=C(C)C)CC23CCC(C)(C)OC2=C(C(=O)c2ccc(O)c(O)c2)C(=O)C1(CC=C(C)C)C3=O (stereo not shown) [schomburgkianone I] | IC50 (alpha-glucosidase [1]; isolated from Thai G. schomburgkiana sources): 21.2 µM
8 | 131 ± 4.6 µM | CC(C)=CCCC(C)=CCC12CC3CC4C(C)(C)CCC4(C1=O)C(=O)C(C(=O)c1ccccc1)(C2=O)C3(C)C (stereo not shown) [Compound 4, hypersampsone I] | –
9 | > 200 µM | COc1c(O)cc2oc3cc(O)c(CC=C(C)C)c(O)c3c(=O)c2c1CC=C(C)C [Compound 8, α-mangostin] | –
10 | 56.9 ± 1.9 µM | CC(C)=CCC/C(C)=C/C[C@]12C[C@@H]3C[C@H]4C(C)(C)CC[C@@]4(C1=O)C(=O)[C@](C(=O)c1ccccc1)(C2=O)C3(C)C [Compound 6, sampsonione H] | IC50 [3]: 6.63 ± 2.4 µM
11 | – | CC(C)=CCCC1(C)C(CC=C(C)C)CC2(CC=C(C)C)C(=O)C(C(=O)c3ccccc3)=C(O)C1C2=O (stereo not shown) [Guttiferone Q] | IC50 (alpha-glucosidase [1]): 118 µM
12 | 60.7 ± 3.6 µM | CC(C)=CCCC1(C)C(CC=C(C)C)CC2(CC=C(C)C)C(=O)C(C(=O)c3ccccc3)=C(O)C1C2=O (stereo not drawn) [Compound 1, epi-guttiferone Q] | –
